Read-outs that look alike come from different tables or passages of the source.
Tests used:
[1] = target: SARS-CoV-2 3CL protease (Severe acute respiratory syndrome coronavirus 2, UniProt P0DTD1); test: Inhibitory activity test against SARS-CoV-2 3CL proteases; assay type: biochemical
[2] = tested on: SARS-CoV-2; test: Inhibitory activity of cytopathic effect (CPE) in HEK293T/ACE2-TMPRSS2 cells; assay type: cell-based; details: Severe acute respiratory syndrome coronavirus 2, HEK-293T, 72 h
[3] = read-out: IC50 (50% SARS-CoV-2 3CL protease inhibitory concentration)
[4] = HEK293T/ACE2-TMPRSS2 cells, cultured 3 days, CellTiter-Glo 2.0 luminescence, read-out: EC50 (50% SARS-CoV-2 infected cell death inhibitory concentration)
[5] = 50% SARS-CoV-2 infected cell death inhibitory concentration, HEK293T/ACE2-TMPRSS2 cells, CellTiter-Glo 2.0 after 3 days culture, read-out: EC50
[6] = IC50 (50% SARS-CoV-2 3CL protease inhibitory concentration)

## COc1nc(N2CC[C@H](CO)C2)cc2c1c(=O)n(-c1cnc3cc(F)ccn13)c(=O)n2-c1ccc(F)c(Cl)c1 [Compound I-0749]
[1]; [3]
  IC50: < 0.1 µM
[2]; [4]
  EC50: < 0.1 µM

## COc1nc(N2CC[C@@H](CO)C2)cc2c1c(=O)n(-c1cnc3cc(F)ccn13)c(=O)n2-c1ccc(F)c(Cl)c1 [Compound I-0750]
[1]; [3]
  IC50: 0.0061 µM
[2]; [5]
  EC50: 0.0259 µM

## [2H]C([2H])([2H])O[C@@H]1CCN(c2cc3c(c(OC)n2)c(=O)n(-c2cnc4cc(F)ccn24)c(=O)n3-c2ccc(F)c(Cl)c2)C1 [Compound I-0751]
[1]; [3]
  IC50: < 0.1 µM
[2]; [4]
  EC50: < 0.1 µM

## COc1nc(N2CCCC2)cc2c1c(=O)n(-c1cnc3cc(F)ccn13)c(=O)n2-c1ccc(F)c(Cl)c1 [Compound I-0752]
[1]; [3]
  IC50: < 0.1 µM
[2]; [4]
  EC50: < 0.1 µM

## COc1nc(N2CC(O)(C(F)(F)F)C2)cc2c1c(=O)n(-c1cnc3cc(F)ccn13)c(=O)n2-c1ccc(F)c(Cl)c1 [Compound I-0753]
[1]; [3]
  IC50: 0.021 µM
[2]; [5]
  EC50: 0.0357 µM

## COc1nc(N2[C@@H]3COC[C@H]2C3)cc2c1c(=O)n(-c1cnc3cc(F)ccn13)c(=O)n2-c1ccc(F)c(Cl)c1 [Compound I-0755]
[1]; [6]
  IC50: 0.0056 µM
[2]
  EC50: 0.00706 µM

## COc1nc(N2C[C@@H]3[C@H](C2)C3(F)F)cc2c1c(=O)n(-c1cnc3cc(F)ccn13)c(=O)n2-c1ccc(F)c(Cl)c1 [Compound I-0759]
[1]; [3]
  IC50: < 0.1 µM
[2]; [4]
  EC50: < 0.1 µM

## COc1nc(N2CC(C)(OC)C2)cc2c1c(=O)n(-c1cnc3cc(F)ccn13)c(=O)n2-c1ccc(F)c(Cl)c1 [Compound I-0762]
[1]; [3]
  IC50: < 0.1 µM
[2]; [4]
  EC50: < 0.1 µM

## COc1nc(N2CC[C@@H](OC(F)F)C2)cc2c1c(=O)n(-c1cnc3cc(F)ccn13)c(=O)n2-c1ccc(F)c(Cl)c1 [Compound I-0763]
[1]; [3]
  IC50: < 0.1 µM
[2]; [4]
  EC50: < 0.1 µM

## [2H]C([2H])([2H])O[C@@H]1CCN(c2cc3c(c(OC)n2)c(=O)n(-c2cnc4cc(F)ccn24)c(=O)n3-c2cc(Cl)c(F)c(OC)c2)C1 [Compound I-0764]
[1]; [3]
  IC50: < 0.1 µM
[2]; [4]
  EC50: < 0.1 µM

## COc1cc(N2CCCC2)cc2c1c(=O)n(Cc1ncn(C)n1)c(=O)n2Cc1cc(Cl)ccc1Cl [Compound I-0784]
[1]; [3]
  IC50: < 0.1 µM
[2]; [4]
  EC50: 0.1 to 1 µM

## COc1cc(N2CCCC2)cc2c1c(=O)n(Cc1ncn(C)n1)c(=O)n2Cc1cc(Cl)ccc1Br [Compound I-0786]
[1]; [3]
  IC50: < 0.1 µM
[2]; [4]
  EC50: 0.1 to 1 µM

## COc1nc(N2CC[C@@H](F)C2)cc2c1c(=O)n(Cc1ncn(C)n1)c(=O)n2-c1ccc(C)c(Cl)c1 [Compound I-0800]
[1]; [3]
  IC50: < 0.1 µM
[2]; [4]
  EC50: < 0.1 µM

## COc1nc(N2CC[C@@H](F)C2)cc2c1c(=O)n(Cc1ncn(C)n1)c(=O)n2-c1cc(F)c(Cl)c(Cl)c1 [Compound I-0802]
[1]; [3]
  IC50: 0.024 µM
[2]; [5]
  EC50: 0.0112 µM

## COc1nc(N2CC[C@@H](F)C2)cc2c1c(=O)n(Cc1ncn(C)n1)c(=O)n2-c1cc(Cl)c(F)c(Cl)c1 [Compound I-0803]
[1]; [3]
  IC50: 0.032 µM
[2]; [5]
  EC50: 0.0176 µM

## COc1cc(-n2c(=O)n(Cc3ncn(C)n3)c(=O)c3c(OC)nc(N4CC[C@@H](F)C4)cc32)cc(Cl)c1F [Compound I-0804]
[1]; [3]
  IC50: < 0.1 µM
[2]; [4]
  EC50: < 0.1 µM

## COc1nc(N2CC[C@@H](F)C2)cc2c1c(=O)n(Cc1ncn(C)n1)c(=O)n2-c1cc(C)c(F)c(Cl)c1 [Compound I-0805]
[1]; [3]
  IC50: < 0.1 µM
[2]; [4]
  EC50: < 0.1 µM

## COc1nc(N2[C@@H]3CC[C@H]2CNC3)cc2c1c(=O)n(-c1cnc3ccc(Cl)cn13)c(=O)n2-c1ccc(F)c(Cl)c1 [Compound I-0806]
[1]; [6]
  IC50: 0.0039 µM
[2]
  EC50: 0.0251 µM

## COc1nc(N2CCC(F)(F)C2)cc2c1c(=O)n(-c1cnc3ccccn13)c(=O)n2-c1ccc(F)c(Cl)c1 [Compound I-0808]
[1]; [3]
  IC50: < 0.1 µM
[2]; [4]
  EC50: < 0.1 µM

## Cn1cnc(Cn2c(=O)c3c4nccnc4c(-c4cc(C#N)ccc4Cl)cc3n(Cc3cc(F)c(F)c(Cl)c3)c2=O)n1 [Compound I-0809]
[1]; [3]
  IC50: < 0.1 µM
[2]; [4]
  EC50: < 0.1 µM

## Cn1cnc(Cn2c(=O)c3c4nccnc4c(-c4cc(C(C)(C)O)ccc4Cl)cc3n(Cc3cc(F)c(F)c(Cl)c3)c2=O)n1 [Compound I-0810]
[1]; [3]
  IC50: 0.0013 µM
[2]; [5]
  EC50: 0.0194 µM

## Cn1cnc(Cn2c(=O)c3c4c(c(-c5cc(C#N)ccc5Cl)cc3n(Cc3cc(F)c(F)c(Cl)c3)c2=O)CCO4)n1 [Compound I-0811]
[1]; [3]
  IC50: < 0.1 µM
[2]; [4]
  EC50: < 0.1 µM

## Cn1cnc(Cn2c(=O)c3c4c(c(-c5cc(C(C)(C)O)ccc5Cl)cc3n(Cc3cc(F)c(F)c(Cl)c3)c2=O)CCO4)n1 [Compound I-0812]
[1]; [3]
  IC50: 0.0011 µM
[2]; [5]
  EC50: 0.0158 µM

## Cn1cnc(Cn2c(=O)c3c4nccnc4c(N4CCC(F)(F)C4)cc3n(Cc3cc(F)c(F)c(Cl)c3)c2=O)n1 [Compound I-0813]
[1]; [3]
  IC50: < 0.1 µM
[2]; [4]
  EC50: < 0.1 µM

## Cn1cnc(Cn2c(=O)c3c4c(c(N5CCC(F)(F)C5)cc3n(Cc3cc(F)c(F)c(Cl)c3)c2=O)CCO4)n1 [Compound I-0814]
[1]; [3]
  IC50: < 0.1 µM
[2]; [4]
  EC50: < 0.1 µM

## Cn1cnc(Cn2c(=O)c3c4nccnc4c(-c4cc(C(C)(C)O)c(F)cc4Cl)cc3n(Cc3cc(F)c(F)c(Cl)c3)c2=O)n1 [Compound I-0815]
[1]; [3]
  IC50: < 0.1 µM
[2]; [4]
  EC50: < 0.1 µM

## COc1nc2c(=O)n(Cc3ncn(C)n3)c(=O)n(Cc3cc(F)c(F)c(Cl)c3)c2cc1-c1cc(C(C)(C)O)c(F)cc1Cl [Compound I-0816]
[1]; [3]
  IC50: < 0.1 µM
[2]; [4]
  EC50: < 0.1 µM

## COc1nc2c(=O)n(Cc3ncn(C)n3)c(=O)n(Cc3cc(F)c(F)c(Cl)c3)c2cc1-c1nc(C#N)ccc1Cl [Compound I-0819]
[1]; [3]
  IC50: < 0.1 µM
[2]; [4]
  EC50: < 0.1 µM

## COc1ccc(Cl)c(-c2cc3c(nc2OC)c(=O)n(Cc2ncn(C)n2)c(=O)n3Cc2cc(F)c(F)c(Cl)c2)n1 [Compound I-0820]
[1]; [3]
  IC50: < 0.1 µM
[2]; [4]
  EC50: < 0.1 µM

## COc1ccc(Cl)c(-c2cc3c(nc2OC)c(=O)n(Cc2ncn(C)n2)c(=O)n3Cc2cc(Cl)c(F)cc2C)n1 [Compound I-0821]
[1]; [3]
  IC50: 0.01 µM
[2]; [5]
  EC50: 0.0376 µM

## COc1nc2c(=O)n(Cc3ncn(C)n3)c(=O)n(Cc3cc(Cl)c(F)cc3C)c2cc1-c1cc(C(C)(C)O)ccc1Cl [Compound I-0822]
[1]; [3]
  IC50: < 0.1 µM
[2]; [4]
  EC50: < 0.1 µM

## Cn1cnc(Cn2c(=O)c3c4nccnc4c(-c4cc5c(cc4Cl)NC(=O)C5)cc3n(Cc3cc(F)c(F)c(Cl)c3)c2=O)n1 [Compound I-0823]
[1]; [3]
  IC50: 0.00075 µM
[2]; [5]
  EC50: 0.197 µM

## COc1cc(-c2nc(C)ccc2Cl)cc2c1c(=O)n(Cc1ncn(C)n1)c(=O)n2Cc1cc(F)c(F)c(F)c1 [Compound I-0826]
[1]; [3]
  IC50: < 0.1 µM
[2]; [4]
  EC50: < 0.1 µM

## COc1cc(-c2ncc(F)cc2Cl)cc2c1c(=O)n(Cc1ncn(C)n1)c(=O)n2Cc1cc(F)c(F)c(F)c1 [Compound I-0827]
[1]; [3]
  IC50: < 0.1 µM
[2]; [4]
  EC50: 0.1 to 1 µM

## COc1cc(-c2ncc(N)cc2Cl)cc2c1c(=O)n(Cc1ncn(C)n1)c(=O)n2Cc1cc(F)c(F)c(F)c1 [Compound I-0834]
[1]; [3]
  IC50: < 0.1 µM
[2]; [4]
  EC50: < 0.1 µM

## COc1cc(-c2ncccc2Cl)cc2c1c(=O)n(Cc1ncn(C)n1)c(=O)n2Cc1cc(F)c(F)c(F)c1 [Compound I-0838]
[1]; [3]
  IC50: < 0.1 µM
[2]; [4]
  EC50: 0.1 to 1 µM

## COc1cc(-c2cc([C@@H](C)O)ccc2Cl)cc2c1c(=O)n(Cc1ncn(C)n1)c(=O)n2Cc1cc(F)c(F)c(F)c1 [Compound I-0839]
[1]; [3]
  IC50: < 0.1 µM
[2]; [4]
  EC50: 0.1 to 1 µM

## COc1cc(-c2cc([C@H](C)O)ccc2Cl)cc2c1c(=O)n(Cc1ncn(C)n1)c(=O)n2Cc1cc(F)c(F)c(F)c1 [Compound I-0840]
[1]; [3]
  IC50: < 0.1 µM
[2]; [4]
  EC50: < 0.1 µM

## COc1nc(-c2cc(C#N)ccc2Cl)cc2c1c(=O)n(-c1cnc3ccccn13)c(=O)n2Cc1ccc(F)c(C#N)c1 [Compound I-0842]
[1]; [3]
  IC50: 0.034 µM
[2]; [5]
  EC50: 0.0882 µM

## COc1nc2c(=O)n(-c3cnc4cc(F)ccn34)c(=O)n(Cc3cc(Cl)c(F)cc3C)c2cc1-c1cc(C(C)(C)O)ccc1Cl [Compound I-0843]
[1]; [3]
  IC50: 0.0074 µM
[2]; [5]
  EC50: 0.0723 µM

## N#Cc1ccc(Cl)c(-c2cc3c(c(=O)n(-c4cnc5ccccn45)c(=O)n3Cc3cc(F)c(F)c(F)c3)c3nccnc23)c1 [Compound I-0844]
[1]; [3]
  IC50: < 0.1 µM
[2]; [4]
  EC50: < 0.1 µM

## COc1cc(-c2cccc(C#N)c2Cl)cc2c1c(=O)n(Cc1ncn(C)n1)c(=O)n2Cc1cc(F)c(F)c(F)c1 [Compound I-0847]
[1]; [3]
  IC50: < 0.1 µM
[2]; [4]
  EC50: 0.1 to 1 µM

## COc1cc(-c2cc3nc(C(F)F)[nH]c3cc2Cl)cc2c1c(=O)n(Cc1ncn(C)n1)c(=O)n2Cc1cc(F)c(F)c(F)c1 [Compound I-0848]
[1]; [3]
  IC50: < 0.1 µM
[2]; [4]
  EC50: 0.1 to 1 µM

## CCOc1nc2cc(-c3cc(OC)c4c(=O)n(Cc5ncn(C)n5)c(=O)n(Cc5cc(F)c(F)c(F)c5)c4c3)c(Cl)cc2[nH]1 [Compound I-0852]
[1]; [3]
  IC50: < 0.1 µM
[2]; [4]
  EC50: 0.1 to 1 µM
